Laboratory results: doi:10.1101/2023.09.11.557162v4 (biorxiv, 2025)
Where two headings read alike, the source gives them in different places.

Key:
Assay in all cases: DNA-dependent ATPase assay
Assay type in all cases: biochemical
SMARCA2 = SMARCA2 (Homo sapiens, UniProt P51531)
SMARCA4 = SMARCA4 (Homo sapiens, UniProt P51532)
CHD4 = CHD4 (Homo sapiens, UniProt Q14839)
CHD4, sequence (Q14839 whole entry): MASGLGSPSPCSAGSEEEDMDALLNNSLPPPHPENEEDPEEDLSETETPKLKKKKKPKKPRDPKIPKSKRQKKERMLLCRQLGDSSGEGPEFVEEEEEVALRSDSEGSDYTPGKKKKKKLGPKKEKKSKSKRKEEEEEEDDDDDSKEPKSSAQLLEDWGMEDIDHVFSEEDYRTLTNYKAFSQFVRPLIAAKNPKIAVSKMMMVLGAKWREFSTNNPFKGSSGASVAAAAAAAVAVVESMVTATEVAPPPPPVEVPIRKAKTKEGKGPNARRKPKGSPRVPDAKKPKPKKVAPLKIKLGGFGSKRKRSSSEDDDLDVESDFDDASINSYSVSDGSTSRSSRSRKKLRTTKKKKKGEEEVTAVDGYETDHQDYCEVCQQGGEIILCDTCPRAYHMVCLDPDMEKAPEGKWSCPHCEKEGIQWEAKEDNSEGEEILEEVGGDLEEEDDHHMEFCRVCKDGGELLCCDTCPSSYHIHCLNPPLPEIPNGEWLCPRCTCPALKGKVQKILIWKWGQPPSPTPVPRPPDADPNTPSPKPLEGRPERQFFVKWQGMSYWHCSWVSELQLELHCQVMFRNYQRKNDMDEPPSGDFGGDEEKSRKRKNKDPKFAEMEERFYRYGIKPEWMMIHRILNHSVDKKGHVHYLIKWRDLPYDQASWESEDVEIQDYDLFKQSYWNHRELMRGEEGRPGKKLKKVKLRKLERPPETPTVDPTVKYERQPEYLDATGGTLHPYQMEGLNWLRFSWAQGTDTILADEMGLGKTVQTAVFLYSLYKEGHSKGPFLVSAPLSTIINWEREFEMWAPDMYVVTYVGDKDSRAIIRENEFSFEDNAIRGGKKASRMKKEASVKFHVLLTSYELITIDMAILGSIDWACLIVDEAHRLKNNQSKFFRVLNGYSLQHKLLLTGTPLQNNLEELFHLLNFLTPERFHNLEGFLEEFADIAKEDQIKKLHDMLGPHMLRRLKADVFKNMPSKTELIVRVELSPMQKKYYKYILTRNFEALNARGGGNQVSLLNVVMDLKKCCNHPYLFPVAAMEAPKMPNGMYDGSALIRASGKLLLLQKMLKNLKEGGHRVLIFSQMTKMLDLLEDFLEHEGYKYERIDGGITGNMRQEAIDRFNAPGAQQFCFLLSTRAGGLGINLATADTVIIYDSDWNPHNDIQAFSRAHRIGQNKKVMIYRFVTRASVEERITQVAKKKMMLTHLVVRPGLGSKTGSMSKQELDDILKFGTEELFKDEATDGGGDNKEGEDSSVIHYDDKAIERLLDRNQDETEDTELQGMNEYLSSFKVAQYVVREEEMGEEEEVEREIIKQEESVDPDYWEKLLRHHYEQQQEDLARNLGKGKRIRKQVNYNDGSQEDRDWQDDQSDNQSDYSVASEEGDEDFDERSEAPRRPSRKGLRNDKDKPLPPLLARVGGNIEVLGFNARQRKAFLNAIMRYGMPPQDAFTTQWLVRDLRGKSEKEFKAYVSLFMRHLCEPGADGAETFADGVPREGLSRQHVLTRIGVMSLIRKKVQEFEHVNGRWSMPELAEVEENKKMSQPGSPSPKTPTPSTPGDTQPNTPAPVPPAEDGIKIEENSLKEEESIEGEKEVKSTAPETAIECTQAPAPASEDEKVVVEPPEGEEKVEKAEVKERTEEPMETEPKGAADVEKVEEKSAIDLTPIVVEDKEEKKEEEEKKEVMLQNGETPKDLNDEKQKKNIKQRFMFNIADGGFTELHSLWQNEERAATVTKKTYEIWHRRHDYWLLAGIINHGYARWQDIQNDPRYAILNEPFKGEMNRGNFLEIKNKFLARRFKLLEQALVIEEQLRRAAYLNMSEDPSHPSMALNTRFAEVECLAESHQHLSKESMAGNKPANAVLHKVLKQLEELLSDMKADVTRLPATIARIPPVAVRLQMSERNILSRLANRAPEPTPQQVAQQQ

SMARCA2, sequence (P51531 whole entry): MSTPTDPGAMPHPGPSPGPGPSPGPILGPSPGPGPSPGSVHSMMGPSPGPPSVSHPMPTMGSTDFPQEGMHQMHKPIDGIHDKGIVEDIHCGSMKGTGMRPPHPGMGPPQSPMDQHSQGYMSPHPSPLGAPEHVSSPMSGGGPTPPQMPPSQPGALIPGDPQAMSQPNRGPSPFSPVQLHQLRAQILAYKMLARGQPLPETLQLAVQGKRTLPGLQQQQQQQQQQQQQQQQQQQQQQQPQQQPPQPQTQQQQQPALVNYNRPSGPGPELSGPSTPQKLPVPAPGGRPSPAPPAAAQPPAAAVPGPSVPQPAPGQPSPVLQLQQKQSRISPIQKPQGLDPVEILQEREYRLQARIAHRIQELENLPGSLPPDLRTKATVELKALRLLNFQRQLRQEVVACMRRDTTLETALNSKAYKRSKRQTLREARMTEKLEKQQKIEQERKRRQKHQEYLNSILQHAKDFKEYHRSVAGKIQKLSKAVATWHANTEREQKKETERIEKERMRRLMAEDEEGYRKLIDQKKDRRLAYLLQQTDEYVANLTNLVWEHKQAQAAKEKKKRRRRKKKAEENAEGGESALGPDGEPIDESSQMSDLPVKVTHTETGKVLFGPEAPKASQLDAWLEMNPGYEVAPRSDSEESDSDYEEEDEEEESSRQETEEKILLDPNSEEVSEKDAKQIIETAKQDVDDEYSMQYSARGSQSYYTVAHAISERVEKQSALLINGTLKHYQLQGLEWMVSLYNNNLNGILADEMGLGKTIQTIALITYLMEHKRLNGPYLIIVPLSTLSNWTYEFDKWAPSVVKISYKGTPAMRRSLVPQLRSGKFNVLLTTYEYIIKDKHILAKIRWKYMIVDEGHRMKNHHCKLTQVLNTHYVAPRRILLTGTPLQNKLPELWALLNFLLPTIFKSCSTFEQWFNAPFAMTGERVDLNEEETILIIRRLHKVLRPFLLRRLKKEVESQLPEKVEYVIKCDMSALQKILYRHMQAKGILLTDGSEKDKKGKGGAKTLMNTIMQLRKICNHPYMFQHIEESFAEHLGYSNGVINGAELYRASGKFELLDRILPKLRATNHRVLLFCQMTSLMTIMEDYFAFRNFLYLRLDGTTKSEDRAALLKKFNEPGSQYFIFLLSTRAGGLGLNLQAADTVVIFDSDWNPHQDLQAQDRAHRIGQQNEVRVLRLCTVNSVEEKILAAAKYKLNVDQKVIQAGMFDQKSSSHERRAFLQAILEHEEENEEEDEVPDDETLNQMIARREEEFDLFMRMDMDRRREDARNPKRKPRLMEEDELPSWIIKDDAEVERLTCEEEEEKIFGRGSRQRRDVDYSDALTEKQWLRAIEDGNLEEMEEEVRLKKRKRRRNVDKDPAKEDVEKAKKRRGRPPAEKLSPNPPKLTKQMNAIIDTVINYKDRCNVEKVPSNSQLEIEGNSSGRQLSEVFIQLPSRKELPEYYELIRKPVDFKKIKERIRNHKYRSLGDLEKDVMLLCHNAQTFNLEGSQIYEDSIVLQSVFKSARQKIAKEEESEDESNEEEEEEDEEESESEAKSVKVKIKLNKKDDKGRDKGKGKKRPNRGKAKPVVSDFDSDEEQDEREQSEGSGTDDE
SMARCA4, sequence (P51532 whole entry): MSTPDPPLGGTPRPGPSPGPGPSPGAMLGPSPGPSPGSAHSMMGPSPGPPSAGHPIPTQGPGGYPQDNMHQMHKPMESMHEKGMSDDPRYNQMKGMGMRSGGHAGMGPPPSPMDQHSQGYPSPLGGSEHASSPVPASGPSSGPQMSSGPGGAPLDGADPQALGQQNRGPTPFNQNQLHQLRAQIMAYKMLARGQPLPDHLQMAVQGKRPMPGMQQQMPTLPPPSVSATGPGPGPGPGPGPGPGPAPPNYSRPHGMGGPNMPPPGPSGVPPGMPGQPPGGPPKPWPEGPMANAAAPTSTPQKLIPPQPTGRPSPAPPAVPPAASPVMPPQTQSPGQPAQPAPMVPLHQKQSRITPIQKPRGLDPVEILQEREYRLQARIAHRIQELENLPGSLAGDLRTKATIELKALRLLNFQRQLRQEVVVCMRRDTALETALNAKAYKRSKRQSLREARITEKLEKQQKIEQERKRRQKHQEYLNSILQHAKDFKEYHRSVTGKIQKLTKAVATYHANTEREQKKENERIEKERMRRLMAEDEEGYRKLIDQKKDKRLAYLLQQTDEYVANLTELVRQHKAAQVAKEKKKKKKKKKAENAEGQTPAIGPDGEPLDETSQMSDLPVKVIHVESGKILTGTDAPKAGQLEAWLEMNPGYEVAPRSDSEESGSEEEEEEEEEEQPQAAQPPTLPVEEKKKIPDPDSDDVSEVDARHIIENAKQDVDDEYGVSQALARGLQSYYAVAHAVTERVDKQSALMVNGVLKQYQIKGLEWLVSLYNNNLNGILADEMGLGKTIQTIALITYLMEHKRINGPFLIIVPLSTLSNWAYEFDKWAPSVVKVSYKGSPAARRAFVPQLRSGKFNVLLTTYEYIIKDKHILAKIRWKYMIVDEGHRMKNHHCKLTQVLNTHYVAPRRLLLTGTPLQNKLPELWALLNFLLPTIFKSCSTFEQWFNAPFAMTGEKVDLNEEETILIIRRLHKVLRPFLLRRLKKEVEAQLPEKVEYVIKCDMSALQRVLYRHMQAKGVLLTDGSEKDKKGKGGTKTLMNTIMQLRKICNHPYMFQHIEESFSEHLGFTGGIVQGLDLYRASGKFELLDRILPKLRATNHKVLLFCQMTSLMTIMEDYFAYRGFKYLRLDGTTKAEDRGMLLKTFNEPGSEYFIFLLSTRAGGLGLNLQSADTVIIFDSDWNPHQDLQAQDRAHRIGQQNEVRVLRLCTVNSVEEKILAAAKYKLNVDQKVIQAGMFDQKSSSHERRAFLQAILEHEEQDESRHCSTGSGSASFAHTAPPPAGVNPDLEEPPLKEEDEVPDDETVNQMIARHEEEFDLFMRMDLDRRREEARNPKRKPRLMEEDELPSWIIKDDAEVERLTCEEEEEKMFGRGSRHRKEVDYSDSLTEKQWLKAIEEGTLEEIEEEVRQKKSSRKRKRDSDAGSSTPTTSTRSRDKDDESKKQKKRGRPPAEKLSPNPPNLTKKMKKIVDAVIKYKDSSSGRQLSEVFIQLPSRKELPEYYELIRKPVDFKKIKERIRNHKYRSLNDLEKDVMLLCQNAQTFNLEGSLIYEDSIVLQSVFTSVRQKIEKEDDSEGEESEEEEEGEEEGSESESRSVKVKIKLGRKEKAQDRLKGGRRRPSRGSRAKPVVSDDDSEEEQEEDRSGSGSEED

IC50 (SMARCA2) [nM]	IC50 (SMARCA4) [nM]	IC50 (SMARCA4; DNA-stimulated ATPase) [nM]	IC50 (CHD4) [nM]	Compound
2500 ± 500	6040 ± 1040			CN(C)S(=O)(=O)c1cccc(C(=O)NCC(=O)Nc2nc(-c3ccccc3)cs2)c1 [FHT-185]
13 ± 3		26 ± 6	> 200000	COC[C@H](NC(=O)c1ccn(S(C)(=O)=O)c1)C(=O)Nc1nc(-c2cccc(-c3ccn(C)n3)c2)cs1 [FHT-2344]
